Results from patent publication US20030229132A1, “Small molecule modulators of apoptosis” (priority 2002, published 2003).

How the values were obtained:
[1] = test system: caspase-3 (DEVDase activity); assay: DEVDase fluorescence screen in HeLa cell S-100 cytoplasmic extracts; format: biochemical; details: in vitro fluorescence assay, HeLa S-100 extracts with cyto c
Description: In order to identify compounds that modulate apoptosis, a chemical genetics approach was utilized to screen for molecules that target components of the apoptosis pathway (see, T. U. Mayer et al., Science 286, 971-4 (1999)). An in vitro screen using cytoplasmic extracts was adapted for apoptosis to a 96-well format and used to test an in-house library of ˜3500 compounds (see, T. Fernandes-Alnemri et al, Proc Natl Acad Sci USA 93, 7464-9 (1996); X. Liu, C. N. Kim, J. Yang, R. Jemmerson, X. Wang, Cell 86, 147-57 (1996); L. M. Leoni et al., Proc Natl Acad Sci USA 95, 9567-71 (1998)). Briefly, individual compounds were added to HeLa cell S-100 cytoplasmic extracts at a final concentration of 1 mM and apoptosis was induced by adding bovine heart cyto c (HeLa cell cytoplasmic extracts were prepared according to previously published reports (see, P. Li et al., Cell 91, 479-89 (1997)). Compounds were distributed into 96-well microtiter plates at a final concentration of 1 mM. To each well was added 250 μg of total protein from cytoplasmic extracts in HEB buffer (50 mM Hepes pH 7.4, 50 mM KCl, 5 mM EGTA, 2 mM MgCl), with 2 mM DTT, 2 μM cyto c, and 0.5 μM DEVD-AFC substrate in a total of 150 μL. Plates were incubated at 37° C. and fluorescence was read in a LJL Biosystems plate reader at 10 min intervals). Activation of caspase-3 was monitored by cleavage of a fluorogenic substrate, Asp-Glu-Val-Asp-7-amino-4-trifluoromethylcoumarin (DEVDase activity). As designed, the DEVDase fluorescence screen encompasses the release of cyto c from the mitochondria to the activation of caspase-3. Possible targets include cyto c, Apaf-1, caspase-9, caspase-3, inhibitors of apoptosis (IAPs), and possible unidentified components present in the cytosol.

caspase-3 activation = assay: Caspase-3 activation by gel filtration fractions of Apaf-1 complexes; format: biochemical; details: 20 μM compound, 0.15 μM cyto c; for extent of caspase-3 activation: vehicle alone 0.36
Description: FIG. 7 depicts activity of compounds 1-5 at low cyto c concentrations in a purified system. Apaf-1 was incubated with vehicle, cyto c, or cyto c plus 20 μM compound as indicated, and then separated on a Superose 6 gel filtration column. Individual fractions were assayed for relative Apaf-1 concentrations by capture ELISA (bar graph), or the ability to activate procaspase-3 processing in lysates (line graph). The percent of Apaf-1 in apoptosomes was determined by dividing the amount of Apaf-1 in fractions 8-11 by the total amount of Apaf-1. The extent of caspase-3 activation (given in arbitrary units) corresponds to the area under the curve for fractions 8-11 in each panel. Black bars represent fractions used for calculations.
As the compounds appeared to be acting prior to caspase activation, their effect on the oligomerization of Apaf-1 was assessed (K. Cain, D. G. Brown, C. Langlais, G. M. Cohen, J Biol Chem 274, 22686-92 (1999); K. Cain et al., J Biol Chem 275, 6067-70 (2000)). By gel filtration, Apaf-1 normally runs as a monomer of ˜140 kD (FIG. 7) (see, A. Saleh, S. M. Srinivasula, S. Acharya, R. Fishel, E. S. Alnemri, J Biol Chem 274, 17941-5 (1999)). Incubation of Apaf-1 with 5 μM cyto c induces over 90% of the Apaf-1 to form large complexes of ˜700 kD, whereas incubation with 0.15 μM cyto c concentration allowed only 22% of the Apaf-1 to assemble into complexes. However, the addition of 20 μM compound 2 or 5 at the lower cyto c concentration caused the formation of two higher molecular weight complexes: a major peak that runs at the same retention time as the complex seen at 5 μM cyto c (˜700 kD), and a minor peak that elutes in the void volume. […] To determine if the Apaf-1 complexes induced by the compounds at the lower cyto c concentration are competent for caspase activation, procaspase-9, procaspase-3, and dATP were added to fractions from the gel filtration column and assayed for caspase-3 activation. Fractions from samples that had been incubated with 5 μM cyto c strongly activated caspase-3 processing (FIG. 7, panel ii, line graph), with the maximal caspase activation corresponding to the fractions that contained the apoptosome complex. On the other hand, no fractions form the sample without cyto c activated capsase-3 processing (panel i). There was a small but measurable amount of capsase-3 activation when the cyto c concentration was reduced to 0.15 μM (panel iii). However, the extent of caspase-3 activation at the reduced level of cyto c increased approximately 4-fold when either compound 2 or 5 was added to the reaction (from 0.36 arbitrary units for the vehicle alone to 1.57 and 1.4 for compounds 2 and 5, respectively, panels iv and vi). […]

MCF-7 = assay: Cell viability, MCF-7; format: cell-based
Description: (§1) Normal cell lines include peripheral blood lymphocytes (PBL) isolated from donated human blood, non-transformed mammary fibroblasts (MCF-10A), human mammary epithelial cells (HMEC), human umbilical vein endothelial cells (HUVEC), and human prostate epithelial cells (PREC). Transformed cell lines include cell lines from leukemia, breast, lung, ovarian, and epidermal cancers (Table 1).

Jurkat cells [2] = assay: Caspase-3 activation in Jurkat cells (immunoblot); format: cell-based, human; details: 50 μM compound or 1 μM staurosporin, 6 hr
Description: (§2) (C) DNA fragmentation analysis. […] Cell viability assay.
(§3) Compounds were then tested for their ability to induce apoptosis in live cells. The ability of the compounds to activate caspase-3 in a Jurkat cell line was first assayed. […] This same pattern was seen when we assayed for the cleavage of poly (ADP-ribose) polymerase (PARP), a cellular substrate of caspases-3 and -7 (see, D. W. Nicholson, Cell Death Differ 6, 1028-42 (1999)). Upon apoptosis, PAR-P is cleaved from a 116 kD to an 85 kD protein.

[3] = test system: human umbilical vein endothelial cells (HUVEC); assay: Cell viability, HUVEC; format: cell-based; details: normal cell
Description: as §1

Jurkat cells [4] = assay: PARP cleavage in Jurkat cells (immunoblot); format: cell-based, human; details: 50 μM compound or 1 μM staurosporin, 6 hr
Description: as §2, §3

[5] = test system: human prostate epithelial cells (PREC); assay: Cell viability, PREC; format: cell-based
Description: as §1

MDA-MB-468 = assay: Cell viability, MDA-MB-468; format: cell-based; details: MDA-MB-468, breast
Description: as §1

`O=C1C(=O)N(Cc2ccc(Cl)c(Cl)c2)c2ccccc21` [Compound 2] was tested, and the “activation of DEVDase activity” value [1] was “strongly activated DEVDase activity”, the “increase in caspase-3 activation over vehicle alone” value (caspase-3 activation) was “approximately 4 fold” and the “extent of caspase-3 activation” value (caspase-3 activation) was 1.57 arbitrary units. The IC50 (MCF-7; MCF-7, breast, caspase-3 deficient) was over 50 µM, the effect on cells (MCF-7; MCF-7, deficient in caspase-3 activity) was “no effect” and the “processing of procaspase-3” value (Jurkat cells [2]) was “significant processing”. For the same compound, the IC50 [3] was 43 µM, the “cleavage of PARP” value (Jurkat cells [4]) was “complete cleavage” and the effect on cells ([5]; PREC cells, up to 50 μM) was “no effect except at the highest concentration”. The IC50 ([5]; PREC, normal cell) was over 50 µM and the IC50 (MDA-MB-468) was 44 µM.

For `O=C(NCc1ccc(Cl)c(Cl)c1)OC1CCc2ccccc21` (stereo not drawn) [Compound 4], the “activation of DEVDase activity” value [1] was “no activity” and the “processing of procaspase-3” value (Jurkat cells [2]) was “less processing”.

For `O=C(NCc1ccc(Cl)c(Cl)c1)OC1CCc2ccccc21` (stereo not drawn) [Compound 5], the “activation of DEVDase activity” value [1] was “strongly activated DEVDase activity”, the “increase in caspase-3 activation over vehicle alone” value (caspase-3 activation) was “approximately 4 fold” and the “extent of caspase-3 activation” value (caspase-3 activation) was 1.4 arbitrary units. For the same compound, the “processing of procaspase-3” value (Jurkat cells [2]) was “significant processing” and the “cleavage of PARP” value (Jurkat cells [4]) was “limited processing”.
